Experimental data reported in US20260242343A1, “COMPOUND SERVING AS DDR1 KINASE INHIBITOR, AND MEDICINE” (NIPPON SHINYAKU CO., LTD., priority 2022, published 2026).

Columns and labels:
DDR1 protein = biological target: T1, DDR1 protein (Homo sapiens, UniProt Q08345); experiment: Evaluation of DDR1 kinase inhibitory activity (LANCE Ultra TR-FRET); type: biochemical; conditions: DDR1 protein 0.5 nM, ATP 100 μM, 2 hours at room temperature; read-out: DDR-1 IC50
T1 construct: purchased Carna Biosciences 08-113
Experimental: The test was performed in duplicate.

[1] = biological target: T2, DDR1 kinase in DDR1-expressing U2OS cells (Homo sapiens, UniProt Q08345); experiment: DDR1 kinase inhibitory effect in DDR1-expressing U2OS cells (PathHunter, type I collagen stimulation); type: cell-based; conditions: type I collagen 50 μg/mL, 10% FBS, read-out: DDR-1 IC50
T2 construct: host or cells: U2OS
Experimental: Test compounds in DMSO were prepared at 10 mM and diluted with DMSO to final concentrations of 1000, 100, 10, 1, and 0.1 μM. These solutions were diluted further with E-MEM medium (Fujifilm Wako Pure Chemical Industries, 051-07615) containing 10% fetal bovine serum (FBS, Gibco, 10270106) to 60,000, 6,000, 600, 60, 6, and 0.6 nM to obtain test sample solutions.
DDR1-expressing U2OS cells (DiscoverX, 93-0894C3) suspended at 2.5×10^5 cells/mL in 10% FBS+E-MEM medium were seeded in 384-well plates (DiscoverX, 92-0013) in 20 μL portions and cultured overnight at 37° C. and 5% CO2.
The next day, the test sample solutions as prepared were added at 5 μL/well to final concentrations of 10,000, 1,000, 100, 10, 1, and 0.1 nM. After incubation at 37° C. and 5% CO2 for 1 hour, type I collagen (Nitta Gelatin, 631-00771) was added at 5 μL/well to a final concentration of 50 μg/mL, and cultured overnight at 37° C. and 5% CO2.
The next day, the plate was left at room temperature for 1 hour, after which 5 μL/well of detection solution was added according to the instruction manual for the PathHunter (registered trademark) Detection Kit (DiscoverX, 93-0001). […] The test was performed in duplicate.

T1 sequence (Q08345 19-876 isoform Q08345-2 limits assumed): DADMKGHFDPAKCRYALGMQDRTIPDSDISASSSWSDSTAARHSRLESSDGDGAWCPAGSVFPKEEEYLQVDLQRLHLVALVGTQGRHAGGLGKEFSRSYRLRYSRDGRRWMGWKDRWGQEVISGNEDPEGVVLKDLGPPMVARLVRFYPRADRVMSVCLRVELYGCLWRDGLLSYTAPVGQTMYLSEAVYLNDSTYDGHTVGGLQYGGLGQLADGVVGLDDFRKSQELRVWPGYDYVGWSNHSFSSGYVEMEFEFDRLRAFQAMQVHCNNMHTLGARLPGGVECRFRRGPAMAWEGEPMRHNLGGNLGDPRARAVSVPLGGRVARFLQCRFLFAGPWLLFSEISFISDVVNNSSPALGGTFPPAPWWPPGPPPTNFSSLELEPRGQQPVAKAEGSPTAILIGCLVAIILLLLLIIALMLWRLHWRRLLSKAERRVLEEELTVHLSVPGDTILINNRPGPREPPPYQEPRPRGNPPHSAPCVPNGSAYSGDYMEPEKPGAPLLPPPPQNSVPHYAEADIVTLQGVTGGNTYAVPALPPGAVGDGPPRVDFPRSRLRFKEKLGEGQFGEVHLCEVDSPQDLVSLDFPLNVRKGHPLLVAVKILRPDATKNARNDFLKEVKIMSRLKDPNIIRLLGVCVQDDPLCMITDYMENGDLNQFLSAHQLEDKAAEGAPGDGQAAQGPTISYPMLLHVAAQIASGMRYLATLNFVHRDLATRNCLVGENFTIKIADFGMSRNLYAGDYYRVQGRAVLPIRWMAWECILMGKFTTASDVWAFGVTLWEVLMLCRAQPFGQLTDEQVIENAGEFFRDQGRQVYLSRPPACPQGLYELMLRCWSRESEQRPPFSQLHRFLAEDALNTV
T2 sequence (Q08345 19-913): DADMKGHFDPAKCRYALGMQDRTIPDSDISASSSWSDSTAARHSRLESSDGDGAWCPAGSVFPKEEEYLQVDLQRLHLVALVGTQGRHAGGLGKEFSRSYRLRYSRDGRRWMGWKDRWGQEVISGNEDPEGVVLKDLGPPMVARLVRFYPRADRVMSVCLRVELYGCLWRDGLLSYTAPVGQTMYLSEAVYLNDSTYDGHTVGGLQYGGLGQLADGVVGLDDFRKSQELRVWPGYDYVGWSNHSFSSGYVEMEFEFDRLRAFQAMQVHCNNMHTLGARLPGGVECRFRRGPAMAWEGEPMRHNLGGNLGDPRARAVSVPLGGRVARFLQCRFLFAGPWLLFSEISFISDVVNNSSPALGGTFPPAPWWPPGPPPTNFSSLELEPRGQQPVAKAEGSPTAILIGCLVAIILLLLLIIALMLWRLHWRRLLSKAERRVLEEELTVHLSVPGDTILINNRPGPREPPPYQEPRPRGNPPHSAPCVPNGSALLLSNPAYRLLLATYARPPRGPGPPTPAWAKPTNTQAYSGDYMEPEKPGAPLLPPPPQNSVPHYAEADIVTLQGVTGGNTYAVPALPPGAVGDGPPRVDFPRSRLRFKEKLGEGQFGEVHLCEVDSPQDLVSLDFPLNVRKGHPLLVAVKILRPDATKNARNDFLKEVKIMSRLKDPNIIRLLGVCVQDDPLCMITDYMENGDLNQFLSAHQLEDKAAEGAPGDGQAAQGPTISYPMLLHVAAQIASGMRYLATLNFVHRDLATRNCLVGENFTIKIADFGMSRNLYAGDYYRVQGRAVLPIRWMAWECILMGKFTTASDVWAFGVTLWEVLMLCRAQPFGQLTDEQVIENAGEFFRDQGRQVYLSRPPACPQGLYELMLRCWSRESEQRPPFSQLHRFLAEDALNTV

Row | Compound | IC50 (DDR1 protein) | IC50 [1]
1 | O=C(N[C@H]1C[C@H](OC(F)(F)F)C[C@@H]1O)c1ccc(OC(F)F)c(C#Cc2cncc(F)c2)c1 [Example 2, 4-(Difluoromethoxy)-3-[2-(5-fluoropyridin-3-yl)ethynyl]-N-[(1S,2S,4S)-2-hydroxy-4-(trifluoromethoxy)cyclopentyl]benzamide] | 3.6 nM | 38 nM
2 | CCc1ncc(C(=O)N[C@H]2C[C@H](OC(F)(F)F)C[C@@H]2O)cc1/C=C(\F)c1cnc(N)nc1 [Example 11, 5-[(1Z)-2-(2-Aminopyrimidin-5-yl)-2-fluoroethenyl]-6-ethyl-N-[(1S,2S,4S)-2-hydroxy-4-(trifluoromethoxy)cyclopentyl]pyridine-3-carboxamide] | 22 nM | 120 nM
3 | CCc1ccc(C(=O)N[C@H]2C[C@H](OC(F)(F)F)C[C@@H]2O)cc1NC(=O)c1cnc(-c2ccccc2)o1 [Example 16, N-(2-Ethyl-5-{[(1S,2S,4S)-2-hydroxy-4-(trifluoromethoxy)cyclopentyl]carbamoyl}phenyl)-2-phenyl-1,3-oxazole-5-carboxamide] | 7.5 nM | 13 nM
4 | O=C(N[C@H]1CC2(CC2)C[C@@H]1O)c1ccc(OC(F)F)c(C#Cc2cncnc2)c1 [Example 18, 4-(Difluoromethoxy)-N-[(5S,6S)-6-hydroxyspiro[2.4]heptan-5-yl]-3-[2-(pyrimidin-5-yl)ethynyl]benzamide] | 22 nM | 150 nM
5 | O=C(N[C@H]1CC2(CC2)C[C@@H]1O)c1ccc(OC(F)F)c(C#Cc2cncc(F)c2)c1 [Example 19, 4-(Difluoromethoxy)-3-[2-(5-fluoropyridin-3-yl)ethynyl]-N-[(5S,6S)-6-hydroxyspiro[2.4]heptan-5-yl]benzamide] | 3.2 nM | 27 nM
6 | Nc1ncc(C#Cc2cc(C(=O)N[C@H]3CC(F)(F)CC[C@@H]3O)ccc2OC(F)F)cn1 [Example 20, 3-[2-(2-Aminopyrimidin-5-yl)ethynyl]-N-[(1S,2S)-5,5-difluoro-2-hydroxycyclohexyl]-4-(difluoromethoxy)benzamide p-toluenesulfonate] | 3.1 nM | 16 nM
7 | Cn1cc(C#Cc2cc(C(=O)N[C@H](CO)CCOC(F)(F)F)ccc2OC(F)F)cn1 [Example 24, 4-(Difluoromethoxy)-N-[(2S)-1-hydroxy-4-(trifluoromethoxy)butan-2-yl]-3-[2-(1-methyl-1H-pyrazol-4-yl)ethynyl]benzamide] | 36 nM | 97 nM
8 | Nc1cnc(/C(F)=C/c2cc(C(=O)N[C@H]3CC4(CC4)C[C@@H]3O)ccc2OC(F)F)cn1 [Example 26, 3-[(1Z)-2-(5-Aminopyrazin-2-yl)-2-fluoroethenyl]-4-(difluoromethoxy)-N-[(5S,6S)-6-hydroxyspiro[2.4]heptan-5-yl]benzamide] | 5.1 nM | 20 nM
9 | NC(=O)c1ncc2cc(-c3cc(C(=O)N[C@H]4CC(F)(F)CC[C@@H]4O)ccc3C(F)(F)F)ccn12 [Example 27, 7-(5-{[(1S,2S)-5,5-Difluoro-2-hydroxycyclohexyl]carbamoyl}-2-(trifluoromethyl)phenyl)imidazo[1,5-a]pyridine-3-carboxamide] | 4 nM | 10 nM
10 | NC(=O)c1ncc2cc(-c3cc(C(=O)N[C@H](CO)CCOC(F)(F)F)cnc3C(F)(F)F)ccn12 [Example 30, 5-{3-Carbamoylimidazo[1,5-a]pyridin-7-yl}-N-[(2S)-1-hydroxy-4-(trifluoromethoxy)butan-2-yl]-6-(trifluoromethyl)pyridine-3-carboxamide] | 18 nM | 78 nM

Now those with a lower IC50 (DDR1 protein), led by results:

Row | IC50 (DDR1 protein) | IC50 [1] | Compound
11 | 1.1 nM | 14 nM | Nc1ncc(/C=C(\F)c2cc(C(=O)N[C@H](CO)CCOC(F)(F)F)ccc2OC(F)F)cn1 [Example 12, 3-[(1Z)-2-(2-Aminopyrimidin-5-yl)-1-fluoroethenyl]-4-(difluoromethoxy)-N-[(2S)-1-hydroxy-4-(trifluoromethoxy)butan-2-yl]benzamide]
12 | 0.87 nM | 1.9 nM | COc1cncc(/C=C(\F)c2cc(C(=O)N[C@H]3C[C@H](OC(F)(F)F)C[C@@H]3O)cc(F)c2OC(F)F)c1 [Example 13, 4-(Difluoromethoxy)-3-fluoro-5-[(1Z)-1-fluoro-2-(5-methoxypyridin-3-yl)ethenyl]-N-[(1S,2S,4S)-2-hydroxy-4-(trifluoromethoxy)cyclopentyl]benzamide]
13 | 2.2 nM | 14 nM | NC(=O)c1ncc2cc(-c3cc(C(=O)N[C@H]4C[C@H](OC(F)(F)F)C[C@@H]4O)cnc3C(F)(F)F)ccn12 [Example 15, 5-{3-Carbamoylimidazo[1,5-a]pyridin-7-yl}-N-[(1S,2S,4S)-2-hydroxy-4-(trifluoromethoxy)cyclopentyl]-6-(trifluoromethyl)pyridine-3-carboxamide]
14 | 1.6 nM | 17 nM | CCc1ccc(C(=O)N[C@H]2C[C@H](OC(F)(F)F)C[C@@H]2O)cc1NC(=O)c1cnc(CC2CC2)s1 [Example 17, 2-(Cyclopropylmethyl)-N-(2-ethyl-5-{[(1S,2S,4S)-2-hydroxy-4-(trifluoromethoxy)cyclopentyl]carbamoyl}phenyl)-1,3-thiazole-5-carboxamide]
15 | 0.27 nM | 11 nM | Nc1ncc(C#Cc2cc(C(=O)N[C@H]3CC4(CC4)C[C@@H]3O)ccc2OC(F)F)cn1 [Example 21, 3-[2-(2-Aminopyrimidin-5-yl)ethynyl]-4-(difluoromethoxy)-N-[(5S,6S)-6-hydroxyspiro[2.4]heptan-5-yl]benzamide]
16 | 0.25 nM | 4.1 nM | COc1nc(N)ncc1C#Cc1cc(C(=O)N[C@H]2CC3(CC3)C[C@@H]2O)ccc1OC(F)F [Example 23, 3-[2-(2-Amino-4-methoxypyrimidin-5-yl)ethynyl]-4-(difluoromethoxy)-N-[(5S,6S)-6-hydroxyspiro[2.4]heptan-5-yl]benzamide]
17 | 1.7 nM | 19 nM | Nc1cnc(/C(F)=C/c2cc(C(=O)N[C@H]3CC(F)(F)CC[C@@H]3O)ccc2OC(F)F)cn1 [Example 25, 3-[(1Z)-2-(5-Aminopyrazin-2-yl)-2-fluoroethenyl]-N-[(1S,2S)-5,5-difluoro-2-hydroxycyclohexyl]-4-(difluoromethoxy)benzamide]
18 | 0.86 nM | 7.8 nM | NC(=O)c1ncc2cc(-c3cc(C(=O)N[C@H]4CC5(CC5)C[C@@H]4O)ccc3C(F)(F)F)ccn12 [Example 28, 7-(5-{[(5S,6S)-6-Hydroxyspiro[2.4]heptan-5-yl]carbamoyl}-2-(trifluoromethyl)phenyl)imidazo[1,5-a]pyridine-3-carboxamide]
19 | 0.81 nM | 3.1 nM | NC(=O)c1ncc2cc(-c3cc(C(=O)N[C@H]4C[C@H](OC(F)(F)F)C[C@@H]4O)ccc3C(F)(F)F)ccn12 [Example 29, 7-(5-{[(1S,2S,4S)-2-Hydroxy-4-(trifluoromethoxy)cyclopentyl]carbamoyl}-2-(trifluoromethyl)phenyl)imidazo[1,5-a]pyridine-3-carboxamide]
20 | 2.2 nM | 5.3 nM | NC(=O)c1ncc2cc(-c3cc(C(=O)N[C@H](CO)CCOC(F)(F)F)ccc3C(F)(F)F)ccn12 [Example 31, 7-(5-{[(2S)-1-Hydroxy-4-(trifluoromethoxy)butan-2-yl]carbamoyl}-2-(trifluoromethyl)phenyl)imidazo[1,5-a]pyridine-3-carboxamide]
